# “Also recorded” adds a separate entry of the source. No end group written: not given here.
# Experiments:
# [1] = tested on: luciferase B6 splenic T cells; assay: One-way mixed lymphocyte reaction (MLR), luciferase B6 splenic T cells with irradiated FVB splenocytes; type: cell-based, mouse; details: for T-cell proliferation in MLR: 3 days, daily addition of VIP and/or VIPhyb, 0-10 mmol/L [sic]
# Experimental: Proliferation of luciferase B6 splenic T cells cultured for 3 days in MLR with irradiated FVB splenocytes, with daily addition of VIP and/or VIPhyb to achieve the concentrations shown (0-10 mmol/L).
# To explore the role of VIP signaling in allo-immune responses, one-way mixed lymphocyte reactions (MLR) were performed containing VIP and/or the antagonistic VIPhyb peptide. Addition of VIP decreased Luciferase T-cell proliferation in a dose-dependent manner, while adding VIPhyb increased T-cell proliferation.
# E.G7-OVA cells = assay: E.G7-OVA lymphoma model, adoptive transfer of T cells expanded with the compounds; type: in vivo, Mice; details: OVA-expressing lymphoma model; T cells expanded 3 days with CD3/CD28 beads and IL-2, injected intravenously on day 7 of tumor growth
# Experimental: Mice were injected subcutaneously with 5×10^5 E.G7-OVA cells that were allowed to grow for 7 days until a palpable tumor formed. During this period, OT-I, OT-II, and B6 T cells were expanded with CD3/CD28 beads in the presence of IL-2 and the indicated compounds for 3 days. On day 7 of tumor growth, mice were injected intravenously with a combination of expanded OT-I, OT-II, and B6 T cells (2×10^6 OT-I, 1×10^6 OT-II, and 2×10^6 B6 cells) or 2×10^6 B6 T cells as a control. Mice were then monitored for tumor growth that was calculated as (L×W^2)/2. FIG. 5B is a tumor growth curve showing the rate of growth among groups over time. Expansion of mouse T cells in the presence of Idelalisib, VIPhyb, or a combination of both enhances their therapeutic efficacy in an OVA-expressing lymphoma model.
# [2] = tested on: senescent T cells from a patient with lymphoma; assay: 10 day in vitro culture of senescent lymphoma patient T cells with anti-CD3/CD28 beads, flow cytometric analysis; type: cell-based, human; details: for fraction of senescent T cells that lacked both CD27 and CD28: control 55.2%; for numbers of effector memory T cells (Tem): 10-day cultures; for in vitro expansion of senescent T cells: as single agent or in combination
# Experimental: Monocytes were depleted from the T cell sample, as monocytes are known to inhibit T cell expansion in cultures containing anti-CD3/CD28 beads. The effect of a range of idelalisib concentrations were compared alone and in combination with 3 uM VIP peptide antagonist (VIPhyb) or 1 ug/ml mast cell chymase, an enzyme that degrades endogenous VIP on T cell activation, differentiation and proliferation. Numbers of viable T cells were measured during a 10 day in vitro cultures as well as the T cell differentiation and activation profiles, focusing on the relative numbers of T cells with a senescent phenotype in which co-stimulatory receptors CD27 and CD28 are both absent (CD27−CD28−), to an activated phenotype, in which either CD27, CD28, or both co-stimulatory receptors are present (CD27+CD28+).
# Aliquots of frozen patient apheresis products or PBMC from ficolled whole blood were rapidly thawed and rested overnight in complete RPMI 1640 supplemented with 10% fetal bovine serum, 100 U/mL penicillin, 100 μg/mL streptomycin, and 50 μM 2-mercaptoethanol (complete media). The following day, red blood cells were removed from apheresis products by ficoll gradient. The leukocytes were then enriched for T cells using an EasySep human T cell enrichment kit according to manufacturer's instructions. Cells were plated in 200 μL of complete media in each well of a 96 well flat-bottom plate. Compounds were added at the indicated concentrations, and the DMSO concentration was normalized to 0.1% for all wells. Anti-CD3/CD28 beads were added at a 1:1 bead:cell ratio. On day 7 post-stimulation, cells from each treatment were transferred to new media. Fresh compounds and beads were then added, and the cells were cultured for an additional 3 days. On day 10 post-initial stimulation, the beads were removed, and the cells were stained for flow cytometric analysis.
# Cells were washed twice in PBS. The cells were also stained using a fixable viability dye. Surface markers were then stained by adding fluorochrome-conjugated antibodies to CD3, CD4, CD8, CD27, CD28, CD45RA, CD45RO, PD-1, and CCR7. To assess proliferation, half the cells were evaluated for expression of Ki67. Ki67 staining was performed using a FoxP3 intracellular staining kit. Just prior to running samples, Accucheck™ counting beads were added to each tube. Samples were acquired on a BD FACS Aria, and analysis was performed using FlowJo™ software. Viable cells were used in the analysis. The absolute numbers of cells was calculated for each population according to instructions provided by the manufacturer of the Accucheck™ counting beads.
# [3] = tested on: T-cells from the anergic lymphoma patient; assay: Culture of sorted lymphoma patient T-cells with anti-CD3/anti-CD28 beads (Ki67, PD-1 by flow cytometry); type: cell-based, human
# Source text: Using high-speed cell sorting subsets of T-cells were isolated defined by their levels of CD27 and CD28 expression from the patient with relapsed lymphoma and a healthy control. CD3 positive T-cells with each of the four phenotypes defined by CD27 and CD28 expression were sorted and cultured in vitro in the presence of anti-CD^3/anti-CD28 beads. Total T-cells from healthy donors had 100% expression of the Ki67 proliferation marker following four days of culture. However, the corresponding total T-cell population from the patient with anergic T-cells following treatment for lymphoma had only 90% of T-cells expressing the Ki67 marker.
# Following the daily addition of 3 uM VIPhyb to these cultures, the proportion of Ki67 positive T-cells from the anergic lymphoma patient was increased to 100%. […] In contrast, the T-cell subsets lacking expression of either CD27 or CD28 or both markers had impaired proliferated response when incubated with the anti-CD3/CD28 beads.
# Addition of the antagonist VIPhyb augmented T-cell proliferation in the subsets lacking either CD27 or CD28.
# [4] = tested on: luciferase-expressing splenic T cells from B6 Luciferase mice; assay: Bioluminescent MLR, B6 Luciferase splenic T cells with irradiated FVB splenic T cells (VIP, VIPhyb, VIPhyb-NP); type: cell-based, mouse; details: for effect on inhibitory effects of VIP on T cell proliferation in vitro: added on 3 consecutive days
# Source text: Splenocytes were extracted from WT and VIP-KO mice treated with B16-F0 and B16-F10 melanoma, and analyzed with flow cytometry for Granzyme B (GrZ B) and CD8 expression. VIPhyb was conjugated to a biocompatible, non-toxic 30 nm NP through emulsion polymerization and tested for purity and stability. A mixed lymphocyte reaction (MLR) using luciferase-expressing splenic T cells from B6 Luciferase mice were co-cultured with irradiated splenic T cells from FVB mice. VIP, VIPhyb, and VIPhyb-NP at concentrations of 0 ug/mL to 975 ug/mL were added to the MLR on 3 consecutive days and their effect on T cell proliferation assessed with bioluminescent imaging.
# DLBCL patient T cells = assay: DLBCL patient T cell expansion for 14 days with CD3/CD28 beads and IL-2; type: cell-based, human
# [5] = tested on: effector/memory CD8+ T cells and mature NK cells; details: mouse leukemia models; cited from earlier work
# Bcl-2 = Bcl-2 blot of protein lysates from patient T cell expansion cultures; type: cell-based, human; details: lysates on days 7 and 14; actin loading control
# Experimental: Protein lysates from patient T cell expansion cultures were prepared on days 7 and 14. Samples were run on an SDS-PAGE gel prior to transfer to a nitrocellulose membrane. The membrane was then probed for the pro-survival Bcl-2 protein, stripped, and then re-probed for actin as a loading control.
# PD-1 and PD-L1 = details: activated T cells and dendritic cells, respectively; cited from earlier work
# [6] = tested on: luciferase positive splenic T cells (B6 Luc); assay: One-way allogeneic MLR, B6 Luc T cells with irradiated B6 Albino stimulator cells, IVIS average radiance; type: cell-based, mouse
# Experimental: Bioluminescent image of a 96-well MLR plate.
# A one-way allogeneic mixed lymphocyte reaction (MLR) between luciferase positive splenic T cells (B6 Luc) and 20 Gy irradiated stimulator cells from B6 Albino mice were co-cultured at 37° C. in a 96-well black plate. VIPhyb-NP in concentrations 0-2.5 uM was added to each well, followed by VIP in concentrations of 0-10 uM, 30 minutes later. This treatment was administered daily for 3 days, and an IVIS spectrum was used to quantify photon intensity, which correlates to cell number, on day 3. An increase in average radiance indicates an increase in T cell proliferation.
# [7] = cited from earlier work
# [8] = inclusion during T cell activation
molecule,measurement,setting,value
"KPRRPYTDNYTRLRKQMAVKKYLNSILN [VIPhyb, peptide antagonist of VIP]",T-cell proliferation in MLR,[1],increased; also recorded: augmented
same,effect on VIP suppression of T-cell proliferation,[1]; VIP plus VIPhyb in MLR,reversed the suppressive effect of VIP; also recorded: mitigated the inhibitory effect
same,therapeutic efficacy of mouse T cells expanded in presence of the compounds,E.G7-OVA cells,enhances
same,fraction of senescent T cells that lacked both CD27 and CD28,[2]; 3 uM VIPhyb,35.7%
same,numbers of effector memory T cells (Tem),[2],increased
same,in vitro expansion of senescent T cells,[2],significantly expanded
same,levels of PD-1 expression,"[3]; 3 uM VIPhyb, flow cytometry, compared with control cultures without VIP antagonist",decreased
same,T-cell proliferation in the subsets lacking either CD27 or CD28,"[3]; addition of VIPhyb, anti-CD3/CD28 beads",augmented
same,proportion of Ki67 positive T-cells,"[3]; daily addition of 3 uM VIPhyb, total T-cells of anergic lymphoma patient, anti-CD3/anti-CD28 beads, four days of culture, 90% without VIPhyb",100%
same,concentration of peak efficacy,[4]; T cell proliferation in MLR,300 µg/mL
same,effect on inhibitory effects of VIP on T cell proliferation in vitro,[4]; 0 ug/mL to 975 ug/mL,counteracted the inhibitory effects of VIP
same,frequency of CD27+CD28+ cells,DLBCL patient T cells,increases
same,frequency of CD27−CD28− cells,DLBCL patient T cells,decreasing
same,number of effector/memory CD8+ T cells and mature NK cells,[5],increases
same,expression of Bcl-2 in lymphoma patient T cells,Bcl-2,increased
same,expression of PD-1 and PD-L1,PD-1 and PD-L1,down regulates
VIPhyb-NP: VIPhyb with C-terminal linker (SEQ ID NO: 13) conjugated to a 30 nm poloxamer-stabilized polypropylene sulfide nanoparticle (KPRRPYTDNYTRLRKQMAVKKYLNSILNGGGGSC; also: conjugated to polypropylene sulfide nanoparticle),average radiance (T cell proliferation),"[6]; VIPhyb-NP 0-2.5 uM daily for 3 days, read on day 3",significant dose-dependent increase
same,effect on immunosuppressive effects of VIP,"[6]; VIPhyb-NP 0-2.5 uM, then VIP 0-10 uM 30 minutes later",able to counteract the immunosuppressive effects of VIP
same,dose dependence of effect on T cell proliferation,[4]; 0 ug/mL to 975 ug/mL,dose-dependent
same,effect on inhibitory effects of VIP on T cell proliferation in vitro,[4]; 0 ug/mL to 975 ug/mL,counteracted the inhibitory effects of VIP
"CC[C@H](Nc1ncnc2[nH]cnc12)c1nc2cccc(F)c2c(=O)n1-c1ccccc1 [idelalisib, (S)-2-(1-(9H-purin-6-ylamino)propyl)-5-fluoro-3-phenylquinazolin-4(3H)-one]",therapeutic efficacy of mouse T cells expanded in presence of the compounds,E.G7-OVA cells,enhances
same,fraction of senescent T cells that lacked both CD27 and CD28,[2]; 10 nM idelalisib,16.1%
same,numbers of effector memory T cells (Tem),[2],increased
same,in vitro expansion of senescent T cells,[2],significantly expanded
same,proportion of T cells co-expressing CD27 and CD28,"[2]; idelalisib 1 uM or 100 nM, compared to control cultures",significantly increased
same,frequency of CD27+CD28+ cells,DLBCL patient T cells,increases
same,frequency of CD27−CD28− cells,DLBCL patient T cells,decreasing
same,number of viable T cells obtained,DLBCL patient T cells; [8],increases
same,proportion of naïve and central memory cells,DLBCL patient T cells; [8],increases
same,expression of Bcl-2 in lymphoma patient T cells,Bcl-2,increased
HSDAVFTDNYTRLRKQMAVKKYLNSILN [VIP],T-cell proliferation in MLR,[1],decreased
same,half-life in vivo,[7],less than two
"mast cell chymase: human mast cell chymase (CMA1), an enzyme that degrades endogenous VIP (protein, UniProt P23946 22-247, looked up) Chymase: IIGGTECKPHSRPYMAYLEIVTSNGPSKFCGGFLIRRNFVLTAAHCAGRSITVTLGAHNITEEEDTWQKLEVIKQFRHPKYNTSTLHHDIMLLKLKEKASLTLAVGTLPFPSQFNFVPPGRMCRVAGWGRTGVLKPGSDTLQEVKLRLMDPQACSHFRDFDHNLQLCVGNPRKTKSAFKGDSGGPLLCAGVAQGIVSYGRSDAKPPAVFTRISHYRPWINQILQAN",fraction of senescent T cells that lacked both CD27 and CD28,[2]; 1 μg per ml mast cell chymase,37.4%
same,in vitro expansion of senescent T cells,[2],significantly expanded
"IL 12: IL 12 added to T-cell cultures (protein, UniProt P29459 23-219; P29460 23-328, looked up) Interleukin-12 subunit alpha: RNLPVATPDPGMFPCLHHSQNLLRAVSNMLQKARQTLEFYPCTSEEIDHEDITKDKTSTVEACLPLELTKNESCLNSRETSFITNGSCLASRKTSFMMALCLSSIYEDLKMYQVEFKTMNAKLLMDPKRQIFLDQNMLAVIDELMQALNFNSETVPQKSSLEEPDFYKTKIKLCILLHAFRIRAVTIDRVMSYLNAS Interleukin-12 subunit beta: IWELKKDVYVVELDWYPDAPGEMVVLTCDTPEEDGITWTLDQSSEVLGSGKTLTIQVKEFGDAGQYTCHKGGEVLSHSLLLLHKKEDGIWSTDILKDQKEPKNKTFLRCEAKNYSGRFTCWWLTTISTDLTFSVKSSRGSSDPQGVTCGAATLSAERVRGDNKEYEYSVECQEDSACPAAEESLPIEVMVDAVHKLKYENYTSSFFIRDIIKPDPPKNLQLKPLKNSRQVEVSWEYPDTWSTPHSYFSLTFCVQVQGKSKREKKDRVFTDKTSATVICRKNASISVRAQDRYYSSSWSEWASVPCS","proliferation fraction of T-cells, CD28 negative and CD27 negative subsets",[3]; addition of IL 12 to the cultures,significant impact in increasing the proliferation fraction of T-cells that were CD28 negative but not those that were CD27 negative

# — patent publication US11850263B2, “Nanoparticles conjugated with vasoactive intestinal peptide antagonists” (Emory University, priority 2017, dated 2023)
